{"source": "patent US9771563B2", "about": "“Chemical approaches for generation of induced pluripotent stem cells” (The Scripps Research Institute, priority 2008, dated 2017)", "key": {"[1]": {"test_system": "mouse embryonic fibroblasts (129 or OG2 MEFs)", "test": "Screen for iPSC generation from MEFs transduced with Oct4/Klf4 (OK)", "format": "cell-based", "description": "Unmodified MEFs derived from E13-14 embryos of the 129 mice were used for the initial screen. MEFs were plated on Matrigel at 3.5×10^4 cells/well of a 6-well plate and transduced with OK (retroviral vectors expressing Oct4 and Klf4) alone. Within 14-21 days, treated cells were assessed for the appearance of colonies that had the characteristic embryonic stem cell (ESC) colony morphology and were positive for the pluripotency marker alkaline phosphatase (ALP). Such OK-transduced cells generated only a few small non-compact colonies, which were weakly positive for ALP expression. These colonies initially appeared within 21 days after viral transduction and were difficult to expand. Therefore, such assay system offered a clean background for the identification of small molecules having desirable reprogramming inducing activity. Using this system, compounds from a library of around 2000 known small molecules (see Experimental Procedures below) were screened and were identified as hits when they induced the appearance of ESC colonies that were strongly positive for ALP within 14-21 days after treatment. This image-based method provided a more accurate assessment of reprogramming as compared to homogenous reporter-based assay. BIX appeared to have the strongest effect with reproducible induction of more than 1-2 compact ESC-like colonies with high ALP expression. We observed that when MEFs were treated with BIX after OK viral transduction, compact colonies with strong ALP expression could be readily detected within approximately 14-21 days. These cells were also positive for Nanog, Oct4 and SSEA-1 expression. […] However, the reprogramming efficiency in MEFs transduced with OK and treated with BIX was still low, about 2 colonies/3.5×10^4 cells, in comparison to the four factor-induced reprogramming of MEFs or the OK/BIX NPC reprogramming (Shi, Y. et al., Cell Stem Cell, 2:525-528 (2008)). Therefore, we conducted a second screen using a similar protocol, but where BIX was added to the basal media after OK viral transduction. This provided a more permissive platform to identify new small molecules that could further improve reprogramming efficiency. More importantly, this second screen could facilitate discovery of small molecules that impact reprogramming in a more specific manner, for example by acting on signal transduction pathways rather than on histone or DNA modifying enzymes. In this second screen, we again assayed the library of around 2000 known small molecules (see Experimental Procedures), and confirmed two compounds that were able to act in a synergistic manner with BIX to improve reprogramming based on the criteria of the screen. […] Therefore, RG108 was not pursued further for this study. Instead, we focused our phenotypic and functional characterization on another small molecule that was identified in the second screen, BayK, an L-calcium channel agonist. […] Therefore, BayK might play a more specific role in the reprogramming process. When 129 MEFs were transduced with empty retrovirus (negative control); no colonies observed. When 129 MEFs were transduced with OK without small molecules; few small flattened colonies with weak ALP expression present. […] When OK-transduced MEFs were treated with BIX in combination with BayK, a significant increase in the number of ALP^+ colonies that closely resemble the mESC morphology could be observed (˜7 colonies) as compared to OK-transduced MEFs treated with BIX alone (˜2 colonies).\nPrimary 12952/SvPasCrlf (primary screen) or ROSA26^+/−/OG2^+/− (secondary screen) MEFs were plated onto Matrigel (1:50; BD Biosciences, Bedford, Mass.) coated dishes at a density of 3.5×10^4 cells per well of a 6-well plate. Twenty-four hours later, these cells were transduced overnight with defined retroviruses at 37° C., 5% CO2. […] (all products were from Invitrogen, Carlsbad, Calif., except where mentioned). […]"}, "[2]": {"test_system": "mES R1 cells", "test": "Proliferation assay", "format": "cell-based, mouse", "conditions": "2 μM BayK, 1 μM BIX; 15, 24, 48 hours; vs DMSO", "description": "mES R1 cells were plated onto gelatin-coated 6-well plates at a density of 2×10^5 cells/well in complete mES cell media. Upon cell attachment, app. 12 hours, the cells were treated either with DMSO, 1 μM BIX, 2 μM BayK, and a combination of both, in triplicate. At 15, 24 and 48 hours, the cells were detached using trypsin, and counted using a hemocytometer. Trypan blue (Sigma-Aldrich, St. Louis, Mo.) was used for dead cell exclusion."}, "[3]": {"test_system": "OG2+/-/ROSA26+/- MEFs", "test": "Assessment of SOX2 expression after compound treatment (RT-PCR)", "format": "cell-based, mouse", "conditions": "2 μM BayK, 1 μM BIX, 6 days", "description": "OG2^+/−/ROSA26^+/− MEFs were plated onto 6-well plate at a density of 3.4×10^4 cells per well. On the following day, the cells were treated with DMSO, 1 μM BIX, 2 μM BayK, and a combination of both, in triplicate, for 6 days. The media was refreshed at day 3. RNA from each well was then isolated using the RNAeasy Mini Kit (Quiagen). Reverse transcription of the RNA was performed using the iScript™ cDNA Synthesis Kit (BioRad, Hercules, Calif.). Amplification of endogenous Sox2 was done using primers previously published (Takahashi, K., Okita, K., Nakagawa, M., and Yamanaka, S. (2007). Induction of pluripotent stem cells from fibroblast cultures. Nat Protoc 2, 3081-3089; Takahashi, K., and Yamanaka, S. (2006). Induction of pluripotent stem cells from mouse embryonic and adult fibroblast cultures by defined factors. Cell 126, 663-676) with Platinum PCR SuperMix (Invitrogen) on a Mastercycler® ep gradient PCR machine (Eppendorf)."}, "[4]": {"test_system": "mouse fibroblasts", "test": "Reprogramming of mouse fibroblasts with exogenous poly-Arg transcription factor proteins", "format": "cell-based", "conditions": "cells incubated with transcription factor proteins plus agent", "description": "Mouse fibroblasts were grown in mESC medium supplemented with 8 μg/ml of either Oct4/Sox2/Klf4 or Oct4/Sox2/Klf4/Myc (all proteins comprising poly-Arg as described above) for 6-8 hours, washed, and incubated for 2-3 days in mESC media without the above-listed transcription factors. This (4-12 hours with, 1-3 days without) was repeated a number (1, 2, 3, 4, or more) of times and then the cells were cultured in mESC for two weeks.\nMouse fibroblasts were grown in mESC growth medium [Knockout DMEM (Invitrogen) supplemented with 10% ES-FBS+10% KSR, 0.1 mM 2-ME, 1% Glutamax, 1% Non-essential amino acids, 1% EmbryoMax ESC Qualified Nucleosides (Millipore), and 10^3 units/ml LIF (ESGRO, Chemicon International)] supplemented with 8 μg/ml of Oct4/Sox2/Klf4/Myc (all four transcription factors are tagged with poly-Arg […]; SEQ ID NO:2) for 4-12 hours, followed by culturing the cells in the absence of the Oct4/Sox2/Klf4/Myc polypeptides for one day. This procedure was repeated 4 times. The cells were then cultured in mESC medium for another two weeks. iPSC clones were detected by colony morphology and expression of pluripotency markers. An intermediate iPSC clone, which expresses ALP but not Oct4 (Oct4), was dissociated with Trypsin-EDTA. The clone was then expanded by continuous culturing with regular mESC medium or medium supplemented with 0.5 μM PD0325901, 3 μM CHIR99021, 0.5 μM A-83-01. The number of Oct4-positive colonies were counted 2 weeks after small molecule treatment (FIG. 14)."}, "[5]": {"test_system": "MEFs (129, ROSA26+/-/OG2+/-)", "test": "Reprogramming of MEFs transduced with Oct4/Sox2/Klf4 or Oct4/Klf4 with CHIR99021", "format": "cell-based, mouse", "description": "Cell Culture and Viral Transduction: MEFs were derived from 129S2/SvPasCrlf and ROSA26^+/−/OG2^+/− mice according to the protocol reported on WiCell Research Institute website: “Introduction to human embryonic stem cell culture methods”. ROSA26^+/−/OG2^+/− heterozygous transgenic mice carry GFP reporter gene under the control of the Oct4 promoter (Oct4-GFP) and the ubiquitously expressed neo/lacZ transgene [Do J T, Scholer H R, Stem Cells, 22:941-949 (2004)]. Animal experiments were performed according to the Animal Protection Guidelines of the Max Planck Institute for Biomolecular Research, Germany. MEFs were transduced by Oct4, Klf4 and Sox2 three factors, or two-factor combinations of the pMXs-based retroviruses encoding mouse Oct4, Klf4 and Sox2 (Addgene) as previously described [Takahashi K, Yamanaka S, Cell, 126:663-676 (2006)]. […] MEFs transduced with Oct4/Klf4/Sox2 (lx 10^4 cells/well together with 10^5 cells/well CF1 feeders in 6-well plates) were then treated with GSK-3 inhibitor CHIR99021 (Stemgent) for two weeks, and EGFP positive colonies were picked up at the third week after treatment. MEFs transduced with Oct4/Klf4 (lx 10^5 cells/well in 6-well plates) were treated with 10 μM CHIR99021 for four weeks, GFP positive colonies were picked up and expanded at the fourth to fifth week after treatment."}, "[6]": {"test_system": "MEFs", "test": "Real-time PCR of pluripotency genes in untransduced MEFs after small molecule treatment", "format": "cell-based, mouse", "conditions": "10 μM CHIR99021, three days", "protocol": "To detect the expression of pluripotency genes by MEFs and NHEKs that were treated with small molecules, untransduced MEFs and NHEKs were treated for three days in mESC growth medium with 10 μM CHIR99021 or in hES cell medium with either combination of 10 μM CHIR99021 and 2 μM Parnate or combination of 10 μM CHIR99021, 2 μM Parnate, 0.5 μM PD0325901 and 2 μM SB431542. For the semi-quantitative and quantitative RT-PCR analyses, RNA was extracted from miPSCs-OK, hiPSCs-OK, MEFs, treated MEFs and treated NHEKs using the RNeasy Plus Mini Kit in combination with QIAshredder (Qiagene). Reverse transcription was performed with 1 μg RNA using iScript™ cDNA Synthesis Kit (BioRad). […] Real-time PCR was carried out using iQ SYBR Green Supermix (BioRad). […] The expression of genes of interest was normalized to that of GAPDH in all samples."}, "[7]": {"test_system": "Normal Human Epidermal Keratinocytes (NHEKs)", "test": "Reprogramming of lentivirally transduced NHEKs (TRA-1-81 colonies)", "format": "cell-based", "conditions": "0.25 mM NaB vs 0.5 mM VPA", "source_text": "Among several readily available primary human somatic cell types, keratinocytes that can be easily isolated from human skin or hair follicle represent an attractive cell source for reprogramming, because they endogenously express Klf4 and cMyc, and were reported to be reprogrammed more efficiently using the conventional four TFs or three TFs (without Myc) (Aasen et al., Nat Biotechnol 26, 1276-1284 (2008); Maherali et al., Cell Stem Cell 3, 340-345 (2008)). […] Furthermore, we have shown that such dual pathway inhibition could also enhance reprogramming of human keratinocytes by two exogenous TFs (i.e. OK) with two small molecules, Parnate (an inhibitor of lysine-specific demethylase 1) and CHIR99021 (a GSK3 inhibitor) (Li et al., Stem Cells 27, 2992-3000 (2009)). However, such 2-TFs reprogramming process was very inefficient and complex (e.g. involving two exogenous TFs and four chemicals), and reprogramming with even one less TF appeared daunting. Toward this end, we developed a step-wise strategy in refining reprogramming condition and identifying new reprogramming chemical entities. […]"}}}
{"smiles": "COC(=O)C1=C(C)NC(C)=C([N+](=O)[O-])C1c1ccccc1C(F)(F)F", "note": "(stereo not shown) [BayK8644]", "values": [{"measurement": "reprogramming efficiency (GFP+ colonies)", "setting": "[1]; OG2 MEFs transduced with OK, FIG. 3", "result": "did not increase reprogramming efficiency above OK-transduced MEF control"}, {"measurement": "reprogramming activity on OK-transduced MEFs", "setting": "[1]; in the absence of BIX", "result": "no observable reprogramming activity on OK-transduced MEFs in the absence of BIX"}, {"measurement": "proliferation of mES cells (cell number)", "setting": "[2]", "result": "does not lead to a change in proliferation"}, {"measurement": "SOX2 expression", "setting": "[3]", "result": "does not induce SOX2 expression"}]}
{"smiles": "Cc1c[nH]c(-c2cnc(NCCNc3ccc(C#N)cn3)nc2-c2ccc(Cl)cc2Cl)n1", "note": "[CHIR99021]", "values": [{"measurement": "efficiency and speed of development of pluripotent cells", "setting": "[4]", "result": "improved efficiency and speed of development of pluripotent cells"}, {"measurement": "GFP positive colonies out of 10^5 OG2 MEFs", "setting": "[5]; Oct4/Klf4 transduction, 10 μM CHIR99021, 4-5 weeks", "result": "about six"}, {"measurement": "reprogramming efficiency (GFP-positive colonies)", "setting": "[5]; Oct4/Sox2/Klf4-transduced MEFs, about 10 μM, from 0.03-0.08% without", "result": "0.2-0.4 % of transduced MEFs"}, {"measurement": "number of AP-positive mESC-like colonies", "setting": "[5]; Oct4/Sox2/Klf4 transduced MEFs, two weeks treatment, staining at third week", "result": "significantly increased the number of alkaline phosphase (AP)-positive mESC-like colonies in a dose-dependent manner"}, {"measurement": "expression of Sox2 and Oct4 (real-time PCR)", "setting": "[6]", "result": "did not induce the expression of Sox2 and Oct4 in MEFs"}]}
{"smiles": "CCCC(=O)[O-].[Na+]", "note": "[NaB, sodium butyrate]", "values": [{"measurement": "generation of iPSCs under OK condition", "setting": "[7]", "result": "much more reliable and efficient than the previously reported 0.5 mM VPA"}]}
